# Data from US12622918B2, “Formulations and dosages for administering a compound that inhibits MCL1 protein” (Amgen Inc., priority 2019, dated 2026).
# Assays:
# [1] = system: U26681; assay: Cell viability (CellTiterGlo), U26681; assay type: cell-based; conditions: U26681, Multiple myeloma; 24 hours; 10% FBS; read-out: AMS 176 IC50
# [2] = system: KMS26; assay: Cell viability (CellTiterGlo), KMS26; assay type: cell-based; conditions: KMS-26; KMS26, Multiple myeloma; 24 hours; 10% FBS; read-out: AMS 176 IC50
# [3] = system: OPM2-Luc orthotopic tumors; assay: OPM2-Luc multiple myeloma orthotopic model, AMG 176 plus carfilzomib; assay type: in vivo; conditions: AMG 176 20 mg/kg orally once daily; carfilzomib 3 mg/kg IV twice weekly; day 4 until day 20; female NSG mice
# Description: On day 0, female NSG mice were injected IV with 1×10^6 OPM2-Luc human OPM2-Luc multiple myeloma tumor cells transfected with the firefly luciferase gene.
# [4] = system: Namalwa; assay: Cell viability (CellTiterGlo), Namalwa; assay type: cell-based; conditions: NHL, 24 hours, 10% FBS, read-out: AMS 176 IC50
# [5] = system: OPM2-Luc tumor xenografts; assay: OPM2-Luc xenograft efficacy, once-weekly dosing; assay type: in vivo
# Description: Female athymic nude mice were injected subcutaneously with 5×10^6 human OPM2-Luc multiple myeloma tumor cells. […] Tumor volume and body weight were measured twice per week through day 26. […] In the 50 mg/kg intraperitoneal group, 98% regression was observed (p<0.0001) (FIG. 6).
# [6] = system: Ramos; assay: Cell viability (CellTiterGlo), Ramos; assay type: cell-based; conditions: Homo sapiens, NHL, 24 hours, 10% FBS, read-out: AMS 176 IC50
# [7] = system: subjects with relapsed/refractory acute myelogenous leukemia; assay: Phase 1 FIH study, acute myeloid leukemia part 3; assay type: in vivo, human
# Description: In part 3, 10 total subjects were enrolled across 2 cohorts, with doses of 60 mg/m^2 or 120 mg/m^2.
# [8] = system: dog blood; assay: In vitro hemolysis of whole blood, dog; conditions: 0.1 and 1.0 mg/mL, vehicles containing hydroxypropyl-β-cyclodextrin
# [9] = system: subjects with relapsed/refractory multiple myeloma; assay: Phase 1 FIH study, multiple myeloma part 1a (QD2); assay type: in vivo, human
# Description: In part 1a, subjects were enrolled across 8 cohorts, with doses ranging from 30 to 240 mg/m^2 QD2. In part 1b, subjects were enrolled across 2 cohorts, with doses of 120/180-mg/m^2 or 120/240-mg/m^2.
# [10] = molecular target: Monkey MCL1 (Macaca fascicularis, UniProt A0A2K5W0Y7); assay: Cell-free TR-FRET BIM-binding assay, Monkey MCL1; conditions: read-out: IC50 (Mean ± SD) of AMG 176 With Respect to Binding; BIM-binding partner Monkey MCL1; n = 3
# Sequence of Monkey MCL1 (A0A2K5W0Y7 1-346): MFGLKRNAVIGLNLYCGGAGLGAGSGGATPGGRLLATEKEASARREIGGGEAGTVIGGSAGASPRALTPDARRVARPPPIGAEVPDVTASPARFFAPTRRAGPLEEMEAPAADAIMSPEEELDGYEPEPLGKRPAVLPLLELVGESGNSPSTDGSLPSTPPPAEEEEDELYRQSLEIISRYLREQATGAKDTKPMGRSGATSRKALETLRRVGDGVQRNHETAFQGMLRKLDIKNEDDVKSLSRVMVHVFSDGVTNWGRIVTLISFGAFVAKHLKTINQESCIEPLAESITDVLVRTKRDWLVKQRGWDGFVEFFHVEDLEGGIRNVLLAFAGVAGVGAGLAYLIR
# [11] = From the text: Nonclinical safety studies on the compound of Formula I consisted of an exploratory 14-day dog IV toxicology study, Good Laboratory Practices (GLP) 28-day rat and dog IV toxicology studies, in vitro exploratory genotoxicity studies (GLP human ether-á-go-go related gene [hERG] and non-GLP isolated rabbit heart) to characterize potential cardiovascular effects. The doses selected for the 28-day IV rat and dog toxicology studies were intended to characterize the toxicity of the compound of Formula I and provide data to support a starting dose in the first-in-human (FIH) study. An IV route of administration and a dosing schedule of 2 days on/5 days off was used to support the anticipated clinical route and dosing schedule. In a 28-day GLP rat IV infusion toxicology study, the severely toxic dose in 10% of animals (STD10) was 60 mg/kg based on mortality at 120 mg/kg and in a 28-day GLP IV toxicology study in dogs, the highest-nonseverely-toxic dose (HNSTD) was 10 mg/kg based on mortality at 20 mg/kg.
# [12] = in vivo
# [13] = molecular target: Rabbit MCL1 (Oryctolagus cuniculus, UniProt G1T2Q0); assay: Cell-free TR-FRET BIM-binding assay, Rabbit MCL1; conditions: BIM-binding partner Rabbit MCL1; n = 3
# Sequence of Rabbit MCL1 (G1T2Q0 1-352): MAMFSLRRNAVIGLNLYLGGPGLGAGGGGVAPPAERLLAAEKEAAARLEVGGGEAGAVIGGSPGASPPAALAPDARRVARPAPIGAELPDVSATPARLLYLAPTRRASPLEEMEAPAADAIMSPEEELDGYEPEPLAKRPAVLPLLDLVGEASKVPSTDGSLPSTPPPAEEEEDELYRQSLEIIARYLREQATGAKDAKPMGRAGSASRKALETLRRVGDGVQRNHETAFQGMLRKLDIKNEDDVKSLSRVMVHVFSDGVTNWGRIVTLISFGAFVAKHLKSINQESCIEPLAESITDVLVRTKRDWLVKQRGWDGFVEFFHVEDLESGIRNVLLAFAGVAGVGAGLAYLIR
# [14] = system: rat blood; assay: In vitro hemolysis of whole blood, rat; conditions: 0.048, 0.12, 0.24, 1.2, and 2.4 mg/mL, vehicles containing hydroxypropyl-β-cyclodextrin
# [15] = system: human blood; assay: In vitro hemolysis of whole blood, human; conditions: highest concentration tested, 0.25 mg/mL
smiles,measurement,setting,value
CO[C@H]1/C=C/C[C@H](C)[C@@H](C)S(=O)(=O)NC(=O)c2ccc3c(c2)N(C[C@@H]2CC[C@H]21)C[C@@]1(CCCc2cc(Cl)ccc21)CO3 [AMG 176],IC50,[1],8220 nM
same,IC50,[2],248 nM
same,TGI (tumor burden),[3],86%
same,IC50,[4],237 nM
same,tumor regression,[5]; 50 mg/kg intraperitoneally once per week,98%
same,TGI,[5]; 50 mg/kg orally once per week,97%
same,animals tumor free,"[5]; 100 mg/kg once per week, day 26",Five out of 10
same,tumor growth inhibition (TGI),"[5]; 100 mg/kg once-weekly oral, as stated in summary b107",70%
same,tumor regression,[5]; 100 mg/kg orally once per week,70%
same,overt toxicity by changes in body weight,[5]; once-weekly dosing groups,No evidence of overt toxicity
same,IC50,[6],34 nM
same,"Grade 3 adverse events, subjects",[7]; AML part 3,70%
same,"Serious adverse events, subjects",[7]; AML part 3,60%
same,"adverse events considered related to AMG 176, subjects",[7]; AML part 3,40%
same,"adverse events leading to discontinuation of investigational product, subjects",[7]; AML part 3,20%
same,fatal adverse events,[7]; AML part 3,No fatal adverse events occurred
same,febrile neutropenia leading to discontinuation,[7]; AML part 3,10%
same,"grade 4 adverse events, subjects",[7]; AML part 3,20%
same,related increased blood bilirubin,[7]; AML part 3,20%
same,related nausea,[7]; AML part 3,20%
same,superior vena cava syndrome leading to discontinuation,[7]; AML part 3,10%
same,"adverse events, subjects","[7]; AML part 3, 10 subjects",80%
same,"anemia, subjects","[7]; AML part 3, any grade",20%
same,"hypokalemia, subjects","[7]; AML part 3, any grade",30%
same,"hypomagnesemia, subjects","[7]; AML part 3, any grade",20%
same,"increased blood bilirubin, subjects","[7]; AML part 3, any grade",20%
same,"nausea, subjects","[7]; AML part 3, any grade",30%
same,"peripheral edema, subjects","[7]; AML part 3, any grade",30%
same,"pyrexia, subjects","[7]; AML part 3, any grade",20%
same,"vomiting, subjects","[7]; AML part 3, any grade",20%
same,anemia of grade 3 or higher,"[7]; AML part 3, both cohorts combined",20%
same,exposures (Cmax and AUC) versus dose,"[7]; AML, 10 subjects, 60 or 120 mg/m^2, preliminary",generally increased with increasing doses
same,hemolysis of whole blood,[8],cased hemolysis
same,"Grade 3 adverse events, subjects",[9]; MM part 1a,65%
same,"Serious adverse events, subjects",[9]; MM part 1a,31%
same,"adverse events considered related to AMG 176, subjects",[9]; MM part 1a,69%
same,adverse events leading to discontinuation of investigational product,[9]; MM part 1a,No adverse event led to discontinuation
same,anemia of grade 3 or higher,[9]; MM part 1a,15%
same,decreased neutrophil count of grade 3 or higher,[9]; MM part 1a,8%
same,decreased white blood cell count of grade 3 or higher,[9]; MM part 1a,8%
same,"grade 4 adverse events, subjects",[9]; MM part 1a,31%
same,hypertension of grade 3 or higher,[9]; MM part 1a,8%
same,neutropenia of grade 3 or higher,[9]; MM part 1a,31%
same,related diarrhea,[9]; MM part 1a,19%
same,related nausea,[9]; MM part 1a,23%
same,related neutropenia,[9]; MM part 1a,23%
same,"treatment-emergent adverse events, subjects","[9]; MM part 1a QD2, 26 subjects",96%
same,"anemia, subjects","[9]; MM part 1a, any grade",27%
same,"diarrhea, subjects","[9]; MM part 1a, any grade",31%
same,"fatigue, subjects","[9]; MM part 1a, any grade",27%
same,"nausea, subjects","[9]; MM part 1a, any grade",35%
same,"neutropenia, subjects","[9]; MM part 1a, any grade",31%
same,dose-limiting toxicity (DLT) reported,"[9]; MM part 1a, 1 subject in the 240 mg/m^2 cohort, fatal",tumor lysis syndrome
same,exposures (Cmax and AUC) versus dose,"[9]; MM part 1a, 25 subjects, preliminary",generally increased with increasing doses
same,fatal adverse events,"[9]; MM part 1a, hepatic failure (50 mg/m^2, not related), tumor lysis syndrome (240 mg/m^2, related)",Two
same,IC50,[10],0.182 nM
same,genotoxicity,[11],not mutagenic or clastogenic
same,phototoxicity,[12],not phototoxic
same,IC50,[13],0.191 nM
same,hemolysis of whole blood,[14],cased hemolysis
same,hemolysis of whole blood,[15],not hemolytic
